Data set [1] concerns SH-SY5Y. Briefly: Neuroprotective activity in human SH-SY5Y cells assessed as prevention of glyceraldehyde-induced neurite shortening at 10 uM incubated for 72 hrs by microsocopic analysis. In kind it is functional.
For data set [2], the target named is T1, Acetylcholinesterase (Homo sapiens, UniProt P22303). In words: Inhibition of AChE (unknown origin) using acetylthiocholine iodide as substrate preincubated for 20 mins by DTNB reagent based Ellman's method. On the technique in general: In Ellman's method for cholinesterases, released thiocholine reacts with DTNB.
Data set [3] concerns the target T1, Acetylcholinesterase. In words: Inhibition of human recombinant AChE using acetylthiocholine chloride as substrate incubated for 20 mins by DTNB reagent based Ellman's method.
For a further data set, the target named is Beta-secretase 1 (Homo sapiens, UniProt P56817). Briefly: Inhibition of human BACE1 (1 to 454 residues) using APP harboring Swedish Lys/Met mutant-derived peptide as substrate by FRET assay.
For data set [4], the system named is SH-SY5Y. Briefly: Neuroprotective activity in human SH-SY5Y cells assessed as prevention of glyceraldehyde-induced neurite shortening at 1 uM incubated for 72 hrs by microsocopic analysis. In kind it is functional.
Data set [5] relates to VSMC. Briefly: Cytotoxicity against rat VSMC cells assessed as reduction in cell viability at 5 uM measured after 4 days. To be noted: 96 h, time 4 day. Format: toxicity, cell-based.
The subject of data set [6] is VSMC. Briefly: Cytotoxicity against rat VSMC cells assessed as reduction in cell viability at 20 uM measured after 4 days. To be noted: 96 h, time 4 day. In kind it is toxicity, cell-based.
Data set [7] concerns VSMC. In words: Cytotoxicity against rat VSMC cells assessed as reduction in cell viability at 50 uM measured after 4 days. Conditions: 96 h, time 4 day. Format: toxicity, cell-based.
The target in data set [8] is Melatonin receptor type 1A (Homo sapiens, UniProt P48039). In words: Agonist activity at human melatonin MT1 receptor stably expressing in human HEK293 cells. Format: cell-based.
The target in data set [9] is T2, Melatonin receptor type 1B (Homo sapiens, UniProt P49286).
T2 sequence (P49286 whole entry): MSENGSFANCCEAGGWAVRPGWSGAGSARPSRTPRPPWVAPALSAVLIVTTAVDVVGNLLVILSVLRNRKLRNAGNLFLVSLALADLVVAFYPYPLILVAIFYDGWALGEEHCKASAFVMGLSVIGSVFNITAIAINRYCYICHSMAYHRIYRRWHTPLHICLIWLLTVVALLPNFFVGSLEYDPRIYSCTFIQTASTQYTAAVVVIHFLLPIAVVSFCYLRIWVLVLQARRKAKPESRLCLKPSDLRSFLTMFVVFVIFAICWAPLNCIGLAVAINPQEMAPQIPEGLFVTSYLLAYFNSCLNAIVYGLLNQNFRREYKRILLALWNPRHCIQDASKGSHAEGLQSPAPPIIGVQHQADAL
In words: Agonist activity at human melatonin MT2 receptor stably expressing in human HEK293 cells. In kind it is cell-based.

Data set [10] concerns the target Amyloid-beta precursor protein (Homo sapiens) (UniProt P05067). Briefly: Inhibition of amyloid beta (unknown origin) at 10 uM relative to control.
In data set [11] the target is Gamma-secretase (Homo sapiens) (UniProt Q96BI3+Q9NZ42+Q8WW43+P49768+Q92542+P49810). Briefly: Binding affinity to his-tagged gamma-secretase (unknown origin) assessed as equilibrium constant by surface plasmon resonance analysis. Format: protein-complex assay. For orientation: In SPR one partner is held on a chip, and binding of the other changes the refractive index at the surface.

The target of another data set is Gamma-secretase. Briefly: Inhibition of gamma-secretase (unknown origin). Format: protein-complex assay, Homo sapiens.
A short description of data set [12]: Oral bioavailability in RN rat at 20 mg/kg. Conditions: in vivo. Format: ADME, organism-based.
Data set [13] is described as follows: Drug metabolism in RN rat assessed as epimerization ratio at 20 mg/kg, po. Format: ADME, organism-based. Conditions: in vivo, read-out: Drug metabolism.
The nature of data set [14]: Cmax in mouse plasma at 250 mg/kg, po measured after 24 hrs. Set-up: dose 250 mg/kg, time 24 hrs, route po. Format: ADME, organism-based.
In data set [15] the target is Amyloid-beta precursor protein (Homo sapiens) (UniProt P05067). In words: Inhibition of amyloid beta (unknown origin) assessed as reduction in fibril disaggregation at 20 uM incubated for 7 days by ThT fluorescence assay relative to control. Conditions: time 7.0 day.
Data set [16] has the same target. Briefly: Inhibition of amyloid beta (unknown origin) fibril formation at 20 uM incubated for 7 days by ThT fluorescence assay relative to control. Conditions: time 7.0 day.
For data set [17], the target named is T3, 5-hydroxytryptamine receptor 1A (Homo sapiens, UniProt P08908).
T3 sequence (P08908 whole entry): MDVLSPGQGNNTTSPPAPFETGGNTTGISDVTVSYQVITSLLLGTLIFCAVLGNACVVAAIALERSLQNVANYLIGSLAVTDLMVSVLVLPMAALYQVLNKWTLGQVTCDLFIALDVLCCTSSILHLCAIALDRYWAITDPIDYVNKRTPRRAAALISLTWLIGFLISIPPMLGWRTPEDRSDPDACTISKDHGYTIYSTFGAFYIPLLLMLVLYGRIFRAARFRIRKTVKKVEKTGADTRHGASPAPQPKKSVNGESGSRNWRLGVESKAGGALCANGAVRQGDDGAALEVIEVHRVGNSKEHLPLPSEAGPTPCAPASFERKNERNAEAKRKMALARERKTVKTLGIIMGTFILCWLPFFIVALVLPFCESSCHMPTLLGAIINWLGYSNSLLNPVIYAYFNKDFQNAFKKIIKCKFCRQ
In words: Agonist activity at 5HT1A (unknown origin) receptor.

Amyloid-beta precursor protein (Homo sapiens), sequence (P05067 whole entry): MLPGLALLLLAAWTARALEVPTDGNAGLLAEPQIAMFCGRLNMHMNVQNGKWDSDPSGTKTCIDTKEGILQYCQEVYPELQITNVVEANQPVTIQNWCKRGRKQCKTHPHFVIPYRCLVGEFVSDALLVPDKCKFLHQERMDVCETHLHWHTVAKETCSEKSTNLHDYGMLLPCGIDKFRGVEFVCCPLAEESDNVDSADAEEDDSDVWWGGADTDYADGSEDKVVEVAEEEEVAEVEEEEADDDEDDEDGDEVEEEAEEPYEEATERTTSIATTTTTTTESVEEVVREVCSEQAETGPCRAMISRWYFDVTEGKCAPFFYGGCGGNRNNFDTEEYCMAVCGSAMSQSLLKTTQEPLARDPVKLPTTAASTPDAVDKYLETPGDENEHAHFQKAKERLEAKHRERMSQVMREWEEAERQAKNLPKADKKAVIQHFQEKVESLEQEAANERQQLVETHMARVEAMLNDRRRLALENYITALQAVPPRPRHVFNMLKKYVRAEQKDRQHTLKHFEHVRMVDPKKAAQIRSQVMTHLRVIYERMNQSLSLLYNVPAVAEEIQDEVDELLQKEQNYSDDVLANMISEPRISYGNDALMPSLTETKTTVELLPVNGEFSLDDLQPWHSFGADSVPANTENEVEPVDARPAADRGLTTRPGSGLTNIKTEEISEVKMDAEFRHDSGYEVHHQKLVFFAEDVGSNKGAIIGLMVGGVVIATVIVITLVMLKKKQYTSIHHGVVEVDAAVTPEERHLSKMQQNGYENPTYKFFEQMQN
T1 sequence (P22303 whole entry): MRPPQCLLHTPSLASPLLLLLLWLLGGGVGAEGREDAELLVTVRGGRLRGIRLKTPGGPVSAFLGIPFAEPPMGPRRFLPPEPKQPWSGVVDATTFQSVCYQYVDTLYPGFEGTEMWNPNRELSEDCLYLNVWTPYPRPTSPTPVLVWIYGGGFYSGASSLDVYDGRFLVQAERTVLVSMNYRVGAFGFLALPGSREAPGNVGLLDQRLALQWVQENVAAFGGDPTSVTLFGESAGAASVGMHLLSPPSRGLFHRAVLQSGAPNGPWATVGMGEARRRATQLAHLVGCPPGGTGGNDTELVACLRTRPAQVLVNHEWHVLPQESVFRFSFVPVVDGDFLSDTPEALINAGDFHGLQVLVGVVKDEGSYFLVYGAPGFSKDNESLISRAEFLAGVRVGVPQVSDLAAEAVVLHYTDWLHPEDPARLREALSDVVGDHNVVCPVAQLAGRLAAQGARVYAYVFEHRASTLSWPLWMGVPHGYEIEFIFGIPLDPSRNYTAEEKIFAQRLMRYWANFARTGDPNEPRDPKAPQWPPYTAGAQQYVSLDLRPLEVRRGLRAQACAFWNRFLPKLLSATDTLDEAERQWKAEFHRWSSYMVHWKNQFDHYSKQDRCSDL
Beta-secretase 1, sequence (P56817 whole entry, the tested form may be a part): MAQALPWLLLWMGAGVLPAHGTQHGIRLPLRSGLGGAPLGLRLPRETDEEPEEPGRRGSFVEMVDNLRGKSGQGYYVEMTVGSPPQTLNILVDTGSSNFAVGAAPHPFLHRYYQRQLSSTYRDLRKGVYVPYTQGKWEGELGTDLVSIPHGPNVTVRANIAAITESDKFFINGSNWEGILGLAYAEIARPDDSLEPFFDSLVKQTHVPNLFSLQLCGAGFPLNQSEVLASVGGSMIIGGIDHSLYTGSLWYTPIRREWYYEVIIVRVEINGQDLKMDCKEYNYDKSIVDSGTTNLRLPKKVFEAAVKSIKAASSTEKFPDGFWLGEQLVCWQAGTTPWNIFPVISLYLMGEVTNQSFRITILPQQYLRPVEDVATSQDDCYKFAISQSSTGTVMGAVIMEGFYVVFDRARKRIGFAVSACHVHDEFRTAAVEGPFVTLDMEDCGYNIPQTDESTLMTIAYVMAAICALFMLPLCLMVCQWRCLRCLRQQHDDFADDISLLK
Melatonin receptor type 1A, sequence (P48039 whole entry): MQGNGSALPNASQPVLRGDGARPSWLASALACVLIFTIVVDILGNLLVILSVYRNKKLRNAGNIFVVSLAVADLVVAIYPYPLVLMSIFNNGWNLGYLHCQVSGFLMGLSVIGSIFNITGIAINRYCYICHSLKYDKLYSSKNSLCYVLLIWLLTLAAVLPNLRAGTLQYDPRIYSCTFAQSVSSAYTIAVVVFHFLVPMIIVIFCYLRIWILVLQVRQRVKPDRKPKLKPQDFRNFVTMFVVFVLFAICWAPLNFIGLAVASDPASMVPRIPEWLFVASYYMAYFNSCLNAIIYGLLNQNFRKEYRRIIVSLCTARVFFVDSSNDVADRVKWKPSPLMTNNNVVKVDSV

Regarding `COC(=O)[C@H]1C(=O)N2CC[C@]3(C(=O)Nc4ccccc43)[C@H]2C[C@@H]1c1ccc(-c2cccc(Cl)c2)o1`, the Activity in the data set on SH-SY5Y [1] was 47%. On to `C/C=C1/CN2CCc3c([nH]c4ccccc34)[C@@H]2CC1/C(=C\C(=O)OC)OC` (stereo partly drawn), for which the IC50 on Acetylcholinesterase [2] was 3.7 µM; at Acetylcholinesterase [3] it was 10.1 µM. For `CC#Cc1cncc(-c2ccc3c(c2)[C@@]2(CO3)N=C(N)C[C@H]2C(F)(F)F)c1`, at Beta-secretase 1, the IC50 was 0.115 µM. With `COC(=O)[C@@H]1C(=O)N2CC[C@@]3(C(=O)Nc4ccccc43)[C@@H]2C[C@H]1c1ccc(-c2ccc(Cl)c(Cl)c2)o1`, the Activity in the data set on SH-SY5Y [1] worked out at 61%. Take `COC(=O)[C@@H]1C(=O)N2CC[C@@]3(C(=O)Nc4ccccc43)[C@@H]2C[C@H]1c1ccc(-c2cccc(Cl)c2)o1`: the Activity with SH-SY5Y [1] came to 20%.

Consider `COC(=O)[C@H]1C(=O)N2CC[C@]3(C(=O)Nc4ccccc43)[C@H]2C[C@@H]1c1ccc(-c2ccc(Cl)c(Cl)c2)o1`, for which the Activity in the data set with SH-SY5Y [4] worked out at 42%. For `CC[C@H]1CN2CC[C@]3(C(=O)Nc4ccccc43)C2C[C@@H]1/C(=C\OC)C(=O)OC` (stereo partly drawn), the Activity in the data set on VSMC [5] is 25%; with VSMC [6], 63%; in the data set with VSMC [7], 88%. Consider `Oc1cc(O)c2c(c1)O[C@H](c1ccc(O)c(O)c1)[C@@H](O)C2` [CIANIDANOL], for which the IC50 in [8] amounted to 25.8 µM; in [9] it was 47.3 µM. `CC(C)[C@@]1(NC(=O)[C@@H]2C[C@@H]3c4cccc5[nH]cc(c45)C[C@H]3N(C)C2)O[C@@]2(O)[C@@H]3CCCN3C(=O)[C@H](Cc3ccccc3)N2C1=O` [DIHYDROERGOCRISTINE] gave an inhibition in data set [10] of 30%. In addition, the Ke in [11] came to 9.8 µM. The same molecule returned an IC50 against Gamma-secretase of 25 µM.

`CC[C@H]1CN2CC[C@@]3(C(=O)Nc4ccccc43)[C@@H]2C[C@@H]1/C(=C\OC)C(=O)OC` [ISORHYNCHOPHYLLINE]: in [12], the bioavailability worked out at 3.3%. For the same molecule, in data set [13], the metabolised amounted to 22%. For the molecule `Oc1cc(O)c2c(c1)O[C@H](c1ccc(O)c(O)c1)[C@H](O)[C@H]2c1c(O)cc(O)c2c1O[C@H](c1ccc(O)c(O)c1)[C@H](O)C2` [PROCYANIDIN B2], the Cmax in data set [14] was determined as 160 nM. Besides, the inhibition came to 63% in data set [15] and 94% in [16].

On to `CC[C@H]1CN2CC[C@]3(C(=O)Nc4ccccc43)[C@@H]2C[C@@H]1/C(=C\OC)C(=O)OC` [RHYNCHOPHYLLINE], for which the EC50 in data set [17] is 45.3 µM. In data set [12], the bioavailability was 25.9%. Also, in [13], the metabolised turned out to be 22%.

The IC50 is the concentration that gives 50% inhibition. Broadly, the inhibition is how much of the control response was suppressed. One may read the bioavailability as dose-corrected exposure relative to a reference, in per cent. Read a high bioavailability as good availability. Broadly, the Cmax is the maximum level reached in the sampled fluid or tissue. By EC50 is commonly meant the concentration at which the effect is half-maximal. A high value points to lower potency in that assay.

For the origin of these results see ChEMBL document CHEMBL5230142, “Natural spirocyclic alkaloids and polyphenols as multi target dementia leads” (Bioorg Med Chem, 2021).
